We go through 11 compounds from patent US12594276B2, “Inhibitors of human immunodeficiency virus replication” (ViiV Healthcare UK (No.5) Limited, priority 2024, dated 2026).

Some results are limits rather than exact numbers.

Data set [1] deals with recombinant NL4-3 virus (nef section replaced with Renilla luciferase gene) in MT-2 cells. Put plainly: HIV cell culture assay (antiviral activity, luciferase readout). It is filed as cell-based. The conditions noted are these: Renilla, NL43, MT-2 cells infected for 4-5 days with recombinant NL4-3 Renilla luciferase virus. Summed up:
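293T transfection → virus harvest at 2-3 d → titer in MT-2 by luciferase. MT-2 + virus + serial cpd dilutions, 4-5 d. Live-cell luciferase read; EC50 by median effect fit.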

Data set [2] is described as follows: Compound cytotoxicity, XTT-based colorimetric assay. It is filed as cell-based. The conditions noted are these: human; uninfected MT2 cells, day 4, XTT; read-out: CC50. The gist of the method: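 Uninfected MT2 cells were treated with compound under the same protocol as the antiviral assay. Viability was read on day 4 with an XTT colorimetric assay, from which CC50 values were derived.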
For orientation: Formazan colour is commonly taken as a measure of viable cells.

By EC50 is commonly meant the midpoint of the concentration-response curve. Broadly, the CC50 is the concentration at which the toxic effect on the cells reaches its halfway point. With `COCCCn1nc(NS(C)(=O)=O)c2c(Cl)ccc(-n3c([C@H](Cc4cc(F)cc(F)c4)NC(=O)Cn4nc(C(F)F)c5c4C(F)(F)[C@@H]4C[C@H]54)nc4nc(C5CCC(F)(F)CC5)cc(CF)c4c3=O)c21` (atropisomer, axis not shown; (P)) [Example 449, N-[(1S)-1-[(3P)-3-[4-chloro-3-methanesulfonamido-1-(3-methoxypropyl)-1H-indazol-7-yl]-7-(4,4-difluorocyclohexyl)-5-(fluoromethyl)-4-oxo-3H,4H-pyrido[2,3-d]pyrimidin-2-yl]-2-(3,5-difluorophenyl)ethyl]-2-[(2S,4R)-9-(difluoromethyl)-5,5-difluoro-7,8-diazatricyclo[4.3.0.0^2,4]nona-1(6),8-dien-7-yl]acetamide], in data set [1], the EC50 was 0.009 nM. For the same compound, in data set [2], the CC50 at 4 days is greater than 20 nM.
`Cc1cc(C2CCC(F)(F)CC2)nc2nc([C@H](Cc3cc(F)cc(F)c3)NC(=O)Cn3nc(C(F)F)c4c3C(F)(F)[C@@H]3C[C@H]43)n(-c3ccc(Cl)c4c(NS(C)(=O)=O)nn(CCN5C[C@@H](C)OC(C)(C)C5)c34)c(=O)c12` (atropisomer, axis not shown; (P)) [Example 454, N-[(1S)-1-[(3P)-3-(4-chloro-3-methanesulfonamido-1-{2-[(6R)-2,2,6-trimethylmorpholin-4-yl]ethyl}-1H-indazol-7-yl)-7-(4,4-difluorocyclohexyl)-5-methyl-4-oxo-3H, 4H-pyrido[2,3-d]pyrimidin-2-yl]-2-(3,5-difluorophenyl)ethyl]-2-[(2S,4R)-9-(difluoromethyl)-5,5-difluoro-7,8-diazatricyclo[4.3.0.0^2,^4]nona-1(6),8-dien-7-yl]acetamide]: the concentration giving a half-maximal response (EC50) in data set [1] stood at 0.01 nM. Besides, the cytotoxic concentration (CC50) at 4 days in data set [2] is greater than 20 nM.
Turning to `Cc1cc(C2CCC(F)(F)CC2)nc2nc([C@H](Cc3cc(F)cc(F)c3)NC(=O)Cn3nc(C4CC4)c4c3C[C@@H]3C[C@H]43)n(-c3ccc(Cl)c4c(NS(C)(=O)=O)nn(CCN5CCO[C@@H](C(C)C)C5)c34)c(=O)c12` (atropisomer, axis not shown; (P)) [Example 456, N-[(1S)-1-[(3P)-3-(4-chloro-3-methanesulfonamido-1-{2-[(2S)-2-(propan-2-yl)morpholin-4-yl]ethyl}-1H-indazol-7-yl)-7-(4,4-difluorocyclohexyl)-5-methyl-4-oxo-3H,4H-pyrido[2,3-d]pyrimidin-2-yl]-2-(3,5-difluorophenyl)ethyl]-2-[(2S,4S)-9-cyclopropyl-7,8-diazatricyclo[4.3.0.0^2,^4]nona-1(6),8-dien-7-yl]acetamide], the EC50 in data set [1] worked out at 0.01 nM. Further, in data set [2], the CC50 at 4 days is greater than 20 nM.
Turning to `Cc1cc(C2CCC(F)(F)CC2)nc2nc([C@H](Cc3cc(F)cc(F)c3)NC(=O)Cn3nc(C4CC4)c4c3C[C@@H]3C[C@H]43)n(-c3ccc(Cl)c4c(NS(C)(=O)=O)nn(CCN5CCO[C@H](C(C)C)C5)c34)c(=O)c12` (atropisomer, axis not shown; (P)) [Example 457, N-[(1S)-1-[(3P)-3-(4-chloro-3-methanesulfonamido-1-{2-[(2R)-2-(propan-2-yl)morpholin-4-yl]ethyl}-1H-indazol-7-yl)-7-(4,4-difluorocyclohexyl)-5-methyl-4-oxo-3H,4H-pyrido[2,3-d]pyrimidin-2-yl]-2-(3,5-difluorophenyl)ethyl]-2-[(2S,4S)-9-cyclopropyl-7,8-diazatricyclo[4.3.0.0^2,^4]nona-1(6),8-dien-7-yl]acetamide], the EC50 in data set [1] was 0.007 nM. In data set [2], the CC50 at 4 days is greater than 20 nM.
On the same counts, the results for `Cc1cc(C2CCC(F)(F)CC2)nc2nc([C@H](Cc3cc(F)cc(F)c3)NC(=O)Cn3nc(C4CC4)c4c3C[C@@H]3C[C@H]43)n(-c3ccc(Cl)c4c(NS(C)(=O)=O)nn(CCN5C[C@H](C)OC(C)(C)C5)c34)c(=O)c12` (atropisomer, axis not shown; (P)) [Example 458, N-[(1S)-1-[(3P)-3-(4-chloro-3-methanesulfonamido-1-{2-[(6S)-2,2,6-trimethylmorpholin-4-yl]ethyl}-1H-indazol-7-yl)-7-(4,4-difluorocyclohexyl)-5-methyl-4-oxo-3H,4H-pyrido[2,3-d]pyrimidin-2-yl]-2-(3,5-difluorophenyl)ethyl]-2-[(2S,4S)-9-cyclopropyl-7,8-diazatricyclo[4.3.0.0^2,^4]nona-1(6),8-dien-7-yl]acetamide] are 0.007 nM and greater than 20 nM.
On the same counts, the results for `Cc1cc(C2CCC(F)(F)CC2)nc2nc([C@H](Cc3cc(F)cc(F)c3)NC(=O)Cn3nc(C4CC4)c4c3C[C@@H]3C[C@H]43)n(-c3ccc(Cl)c4c(NS(C)(=O)=O)nn(CCN5C[C@@H](C)OC(C)(C)C5)c34)c(=O)c12` (atropisomer, axis not shown; (P)) [Example 459, N-[(1S)-1-[(3P)-3-(4-chloro-3-methanesulfonamido-1-{2-[(6R)-2,2,6-trimethylmorpholin-4-yl]ethyl}-1H-indazol-7-yl)-7-(4,4-difluorocyclohexyl)-5-methyl-4-oxo-3H,4H-pyrido[2,3-d]pyrimidin-2-yl]-2-(3,5-difluorophenyl)ethyl]-2-[(2S,4S)-9-cyclopropyl-7,8-diazatricyclo[4.3.0.0^2,^4]nona-1(6),8-dien-7-yl]acetamide] are 0.005 nM and greater than 20 nM.
For the compound `C[C@@H]1CN(CCn2nc(NS(C)(=O)=O)c3c(Cl)ccc(-n4c([C@H](Cc5cc(F)cc(F)c5)NC(=O)Cn5nc(C6CC6)c6c5C[C@@H]5C[C@H]65)nc5nc(C6CCC(F)(F)CC6)cc(C(F)F)c5c4=O)c32)CC(C)(C)O1` (atropisomer, axis not shown; (P)) [Example 462, N-[(1S)-1-[(3P)-3-(4-chloro-3-methanesulfonamido-1-{2-[(6R)-2,2,6-trimethylmorpholin-4-yl]ethyl}-1H-indazol-7-yl)-7-(4,4-difluorocyclohexyl)-5-(difluoromethyl)-4-oxo-3H,4H-pyrido[2,3-d]pyrimidin-2-yl]-2-(3,5-difluorophenyl)ethyl]-2-[(2S,4S)-9-cyclopropyl-7,8-diazatricyclo[4.3.0.0^2,^4]nona-1(6),8-dien-7-yl]acetamide], in data set [1], the EC50 came to 0.019 nM. Moreover, the CC50 at 4 days in data set [2] was greater than 20 nM.
On the same counts, the results for `CC(C)[C@H]1CN(CCn2nc(NS(C)(=O)=O)c3c(Cl)ccc(-n4c([C@H](Cc5cc(F)cc(F)c5)NC(=O)Cn5nc(C6CC6)c6c5C[C@@H]5C[C@H]65)nc5nc(C6CCC(F)(F)CC6)cc(C(F)F)c5c4=O)c32)CCO1` (atropisomer, axis not shown; (P)) [Example 467, N-[(1S)-1-[(3P)-3-(4-chloro-3-methanesulfonamido-1-{2-[(2S)-2-(propan-2-yl)morpholin-4-yl]ethyl}-1H-indazol-7-yl)-7-(4,4-difluorocyclohexyl)-5-(difluoromethyl)-4-oxo-3H,4H-pyrido[2,3-d]pyrimidin-2-yl]-2-(3,5-difluorophenyl)ethyl]-2-[(2S,4S)-9-cyclopropyl-7,8-diazatricyclo[4.3.0.0^2,^4]nona-1(6),8-dien-7-yl]acetamide] are 0.017 nM and greater than 20 nM.
With `COCCCn1nc(NS(C)(=O)=O)c2c(Cl)ccc(-n3c([C@H](Cc4cc(F)cc(F)c4)NC(=O)Cn4nc(C(F)F)c5c4C(F)(F)[C@@H]4C[C@H]54)nc4nc(C5CCC(F)(F)CC5)cc(CN5CC(C)(C)OC(C)(C)C5)c4c3=O)c21` (atropisomer, axis not shown; (P)) [Example 471, N-[(1S)-1-[(3P)-3-[4-chloro-3-methanesulfonamido-1-(3-methoxypropyl)-1H-indazol-7-yl]-7-(4,4-difluorocyclohexyl)-4-oxo-5-[(2,2,6,6-tetramethylmorpholin-4-yl)methyl]-3H,4H-pyrido[2,3-d]pyrimidin-2-yl]-2-(3,5-difluorophenyl)ethyl]-2-[(2S,4R)-9-(difluoromethyl)-5,5-difluoro-7,8-diazatricyclo[4.3.0.0^2,^4]nona-1(6),8-dien-7-yl]acetamide], in data set [1], the EC50 was found to be 0.038 nM. Also, the CC50 at 4 days in data set [2] is greater than 20 nM.
On the same counts, the results for `CNCc1cc(C2CCC(F)(F)CC2)nc2nc([C@H](Cc3cc(F)cc(F)c3)NC(=O)Cn3nc(C(F)F)c4c3C(F)(F)[C@@H]3C[C@H]43)n(-c3ccc(Cl)c4c(NS(C)(=O)=O)nn(CCCOC)c34)c(=O)c12` (atropisomer, axis not shown; (P)) [Example 472, N-[(1S)-1-[(3P)-3-[4-chloro-3-methanesulfonamido-1-(3-methoxypropyl)-1H-indazol-7-yl]-7-(4,4-difluorocyclohexyl)-5-[(methylamino)methyl]-4-oxo-3H,4H-pyrido[2,3-d]pyrimidin-2-yl]-2-(3,5-difluorophenyl)ethyl]-2-[(2S,4R)-9-(difluoromethyl)-5,5-difluoro-7,8-diazatricyclo[4.3.0.0^2,^4]nona-1(6),8-dien-7-yl]acetamide] are 0.087 nM and greater than 20 nM.
In the case of `Cc1cc(C2(C)CCC(F)(F)CC2)nc2nc([C@H](Cc3cc(F)cc(F)c3)NC(=O)Cn3nc(C(F)F)c4c3C(F)(F)[C@@H]3C[C@H]43)n(-c3ccc(Cl)c4c(NS(C)(=O)=O)nn(CCN5C[C@H](F)C[C@H](F)C5)c34)c(=O)c12` (atropisomer, axis not shown; (P)) [Example 473, N-[(1S)-1-[(3P)-3-(4-chloro-1-{2-[(3R,5S)-3,5-difluoropiperidin-1-yl]ethyl}-3-methanesulfonamido-1H-indazol-7-yl)-7-(4,4-difluoro-1-methylcyclohexyl)-5-methyl-4-oxo-3H,4H-pyrido[2,3-d]pyrimidin-2-yl]-2-(3,5-difluorophenyl)ethyl]-2-[(2S,4R)-9-(difluoromethyl)-5,5-difluoro-7,8-diazatricyclo[4.3.0.0^2,^4]nona-1(6),8-dien-7-yl]acetamide], in data set [1], the EC50 is 0.008 nM. In data set [2], the CC50 at 4 days was greater than 20 nM.
